Our source for the GI50 and TGI values is PubChem BioAssay (NCI).

Each structure is given as a SMILES string.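 Where inhibition never reached the appropriate level, the endpoint shown equals the highest concentration tested. Otherwise, values were interpolated linearly from a five-concentration, 48-hour dose response in 96-well plates. GI50 marks 50% less growth. The concentration for full growth arrest is given as TGI.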

Assay in all cases: NCI-60 cell line screen, 48 h
Experiment [1] has as its system SF-539 CNS.
Experiment [2] has as its system K-562 leukemia.
The subject of experiment [3] is HCT-15 colon.
For experiment [4], the system named is SF-268 CNS.
Experiment [5] deals with OVCAR-5 ovarian.
The subject of experiment [6] is NCI-H522 lung.
Experiment [7] deals with OVCAR-4 ovarian.
For experiment [8], the system named is HCT-116 colon.
In experiment [9] the test system is EKVX NSCLC.
Experiment [10] relates to HL-60(TB) leukemia.

Consider `O=C(Oc1ccc(O)c2c(=O)n3c(cc12)[nH]c1ccccc13)c1ccccc1`, for which the GI50 in experiment [1] was 6.63 µM; in experiment [2], 24.4 µM; in experiment [3], 12.9 µM; in [4] it was 61 µM; in [5] it was 28.4 µM; in [6], 6.21 µM. The GI50 in [7] is 49 µM; in [8] it was 11.3 µM; in experiment [9] it was 24.3 µM; in experiment [10], 21.6 µM. The TGI was 36.6 µM in [1]; 64 µM in experiment [2]; 28.2 µM in experiment [3]; over 100 µM in [4]; 73.2 µM in experiment [5]; 41.2 µM in [6]. In addition, the TGI in [7] was over 100 µM; in [8], 23.5 µM; in experiment [9], over 100 µM; in experiment [10], 51.7 µM.
For `COc1cc2c(cc1OCc1ccccc1)N=C[C@@H]1C/C(=C/C(=O)NCCCN3C(=O)c4cccc5cccc(c45)C3=O)CN1C2=O`, the GI50 is 0.332 µM in experiment [1]; 0.424 µM in experiment [2]; 3.96 µM in experiment [3]; 0.314 µM in experiment [4]; 0.617 µM in experiment [5]; 0.228 µM in [6]. Also, the GI50 was 2.63 µM in [7], 0.538 µM in experiment [8], 1.75 µM in [9] and 0.171 µM in experiment [10]. Moreover, the TGI was 1.47 µM in experiment [1]; over 100 µM in [2]; over 100 µM in experiment [3]; 5.01 µM in experiment [4]; 14.4 µM in experiment [5]; over 100 µM in experiment [7]. Also, the figures for the TGI in experiment [8], in [9] and in [10] were over 100 µM, 6.17 µM and over 23.3 µM, respectively.
As for `CC(=O)O/N=C/c1ncccc1CO`, the TGI in experiment [1], in [2], in experiment [3], in [4], in experiment [5] and in [6] was over 100 µM each time. In addition, the TGI in experiment [7], in experiment [8], in experiment [9] and in experiment [10] was over 100 µM in each case.
Regarding `COc1ccc(/C=C/c2cc(OC)c(OC)c(OC)c2)cc1NC(=O)/C=C/c1ccc(F)cc1`, the GI50 was 2.88 µM in experiment [1]; 1.44 µM in experiment [2]; 4 µM in experiment [3]; 7.7 µM in experiment [4]; 5.97 µM in [5]; 1.87 µM in experiment [6]. Further, the GI50 is 5.95 µM in [7], 3.98 µM in experiment [8], 7.4 µM in experiment [9] and 1.8 µM in experiment [10]. Further, the TGI in experiment [1] is 7.86 µM; in [2], over 100 µM; in experiment [3], over 100 µM; in [4] it was over 100 µM; in [5] it was over 100 µM; in experiment [6] it was 5.73 µM. Besides, the TGI in experiment [7] is over 100 µM; in experiment [8] it was over 100 µM; in experiment [9], over 100 µM; in [10], 7.47 µM.
On to `CCN(CC)c1ccc(N=Nc2ccc(-c3nc4cccnc4o3)cc2)cc1`, for which the TGI in experiment [1], in experiment [2], in experiment [3], in [4], in [5] and in [6] was over 100 µM throughout. The TGI in experiment [7], in experiment [8], in [9] and in [10] was over 100 µM throughout.
For the compound `COc1cc(OC2OC(C)C(O)C(O)C2O)cc2oc(-c3ccc(O)cc3)c(CC=C(C)C)c(=O)c12` (centres undefined), the GI50 in experiment [1] is 19.5 µM; in [2], 7.91 µM; in experiment [3], 16.8 µM; in [4], 15.4 µM; in experiment [5] it was 31.4 µM; in [6], 13 µM. The GI50 in experiment [7] was 2.06 µM; in experiment [8], 8.15 µM; in experiment [9] it was 25.6 µM; in experiment [10], 3.5 µM. For the same compound, the TGI worked out at 44.2 µM in experiment [1]; 27.9 µM in experiment [2]; 52.1 µM in experiment [3]; 32.5 µM in experiment [4]; 69.2 µM in experiment [5]; 39.8 µM in experiment [6]. Besides, the TGI in experiment [7] amounted to 18.9 µM; in [8] it was 20.8 µM; in [9], 99.4 µM; in experiment [10], 16.2 µM.
On to `CCOC(=O)[C@@H](C)C[C@H](Cc1ccccc1)NC(=O)c1csc([C@@H](C[C@H](C(C)C)N(C)C(=O)[C@@H](NC(=O)[C@H]2C[C@H](O[Si](C)(C)C(C)(C)C)CCN2C)C(C)C)OC(C)=O)n1`, for which the GI50 was 0.21 µM in experiment [1]; 0.17 µM in experiment [2]; 0.427 µM in experiment [3]; 0.441 µM in experiment [4]; 0.296 µM in experiment [5]; 0.128 µM in [6]. For the same compound, the GI50 in experiment [7] is 0.674 µM; in experiment [8] it was 0.246 µM; in experiment [9], 0.505 µM; in [10] it was 0.249 µM. Moreover, the TGI in experiment [1] was 0.625 µM; in experiment [2] it was over 5.06 µM; in [3] it was over 5.02 µM; in experiment [4] it was over 8.33 µM; in experiment [5], over 7.43 µM; in experiment [6] it was 1.03 µM. The TGI was over 8.33 µM in [7], 1.63 µM in experiment [8], over 8.33 µM in experiment [9] and 0.896 µM in [10].
In the case of `O=[N+]([O-])c1ccc2[nH]cc(-c3c4ccsc4cc4[nH]c5ccc([N+](=O)[O-])cc5c34)c2c1`, the GI50 in experiment [1] was 0.697 µM; in experiment [2] it was 0.664 µM; in [3], 0.735 µM; in [4], 1.39 µM; in [5], 1.29 µM; in experiment [6], 0.423 µM. In addition, the GI50 was 1.8 µM in experiment [7], 0.865 µM in experiment [8], 1.56 µM in experiment [9] and 1.1 µM in [10]. In addition, the TGI in [1] is 1.91 µM; in [2], 12.3 µM; in [3], 9.68 µM; in experiment [4] it was 18.5 µM; in experiment [5], 7.8 µM; in experiment [6], 3.42 µM. Moreover, the TGI came out at 9.38 µM in [7], 5.37 µM in experiment [8], 11.4 µM in [9] and 19.4 µM in [10].
On to `C=CCCCCCCCCCCCC1CCC(CC)N1` (centres undefined), for which the TGI amounted to 25.3 µM in [1]; 28.1 µM in experiment [2]; 12.9 µM in experiment [3]; 46.6 µM in experiment [4]; 22.6 µM in experiment [5]; 13.5 µM in [6]. Moreover, the TGI turned out to be 21.3 µM in experiment [7], 20.1 µM in experiment [8], 31.4 µM in experiment [9] and 9.01 µM in experiment [10].
